Measurements published in patent US20230391756A1, “NEW COMPOUND” (JANSSEN PHARMACEUTICA NV, priority 2020, published 2023).

How the values were obtained:
[1] = system: TNF; assay: PBMC assay: TNF cytokine level after LPS stimulation; assay type: cell-based; conditions: human PBMCs, 100 ng/ml LPS for 6 hrs, MSD, read-out: TNFα EC50
Procedure: (§1) Peripheral venous blood was collected from healthy individuals and human peripheral blood mononuclear cells (PBMCs) were isolated from blood by Ficoll-Histopaque (Sigma-Aldrich, A0561) density gradient centrifugation. After isolation, PBMCs were stored in liquid nitrogen for later use. Upon thawing, PBMC cell viability was determined in growth medium (RPMI media supplemented with 10% fetal bovine serum, 1% Pen-Strep and 1% L-glutamine). […] PBMCs were added at a density of 7.5×10^4 cells per well and incubated for 30 min in a 5% CO2 incubator at 37° C. LPS stimulation was performed by addition of 100 ng/ml LPS (final concentration, Invivogen, tlrl-smlps) for 6 hrs followed by collection of cellular supernatant and the analysis of IL-1β (μM) and TNF cytokines levels (μM) via MSD technology according to manufacturers' guidelines (MSD, K151A0H).

[2] = system: NLRP3 inflammasome pathway (IL-1β); assay: PBMC assay: IL-1β release after LPS stimulation; assay type: cell-based; conditions: human PBMCs, 100 ng/ml LPS for 6 hrs, MSD
Procedure: The activity of a compound according to the present invention can be assessed by in vitro methods.
as §1

EC50 [1] [µM] | IC50 [2] [µM] | Structure (SMILES)
> 20 | > 20 | Cc1nnc2n1C[C@H](NC(=O)Cc1nn(C(C)C)c3cc(C(F)(F)F)ccc3c1=O)CC2 (single isomer, unassigned) [F-12]
> 20 | 2.7 | Cc1nnc2n1C[C@@H](NC(=O)Cc1nn(C(C)C)c3cc(C(F)(F)F)ccc3c1=O)CC2 (single isomer, unassigned) [F-13]
> 20 | > 20 | CCN1CC[C@@H](C)[C@@H](NC(=O)Cc2nn(C(C)C)c3cc(C(F)(F)F)ccc3c2=O)C1 (single isomer, unassigned) [F-88]
> 20 | 4.97 | CCN1CC[C@H](C)[C@H](NC(=O)Cc2nn(C(C)C)c3cc(C(F)(F)F)ccc3c2=O)C1 (single isomer, unassigned) [F-103]
> 20 | 0.123 | CC(C)n1nc(CC(=O)N[C@H]2C[C@@](C)(O)C2)c(=O)c2ccc(Br)cc21 [F-3]
9.56 | 0.071 | CC(C)n1nc(CC(=O)Nc2ccc3nncn3c2)c(=O)c2ccc(Br)cc21 [F-4]
> 20 | 0.45 | CCn1nc(CC(=O)Nc2ccncn2)c(=O)c2ccc(Br)cc21 [F-7]
12.9 | 0.66 | CCn1nc(CC(=O)Nc2ccncn2)c(=O)c2ccc(C3CC3)cc21 [F-8]
> 20 | 10.2 | CC(C)n1nc(CC(=O)NC2CC(C(C)(C)O)C2)c(=O)c2ccc(C(F)(F)F)cc21 (stereo not shown) [F-9]
> 20 | 4.02 | Cc1nnc2n1CC(NC(=O)Cc1nn(C(C)C)c3cc(C(F)(F)F)ccc3c1=O)CC2 (stereo not shown) [F-11]
> 20 | 6.73 | CC(C)n1nc(CC(=O)Nc2cc(C(F)(F)F)ncn2)c(=O)c2ccc(C(F)(F)F)cc21 [F-16]
> 10 | > 10 | CCn1nc(CC(=O)N[C@H]2C[C@@](C)(OC(=O)Cc3nn(CC)c4cc(Br)ccc4c3=O)C2)c(=O)c2ccc(Br)cc21 [F-23]
19.9 | 0.79 | CC(C)n1nc(CC(=O)Nc2ccc3nccn3c2)c(=O)c2ccc(C(F)(F)F)cc21 [F-35]
> 20 | 1.65 | CC(C)n1nc(CC(=O)Nc2ccn3ncnc3c2)c(=O)c2ccc(C(F)(F)F)cc21 [F-37]
> 20 | 1.75 | CC(C)n1nc(CC(=O)Nc2ccn3ccnc3c2)c(=O)c2ccc(C(F)(F)F)cc21 [F-38]
19.2 | 2.26 | CC(C)n1nc(CC(=O)Nc2ccc3cnnn3c2)c(=O)c2ccc(C(F)(F)F)cc21 [F-40]
> 20 | 4.91 | CC(C)n1nc(CC(=O)Nc2cc3c(cn2)ncn3C)c(=O)c2ccc(C(F)(F)F)cc21 [F-44]
16.1 | 0.84 | CC(C)n1nc(CC(=O)Nc2ccc(=O)n(C)c2)c(=O)c2ccc(C(C)(F)F)cc21 [F-52]
9.74 | 0.71 | CC(C)n1nc(CC(=O)Nc2ccc(=O)n(C)n2)c(=O)c2ccc(C(C)(F)F)cc21 [F-53]
> 20 | 0.685 | CC(C)n1nc(CC(=O)Nc2ccc3ncn(C)c3n2)c(=O)c2ccc(C(F)(F)F)cc21 [F-54]

EC50 [1] [µM] | IC50 [2] [µM] | Structure (SMILES)
> 20 | 0.62 | O=C(Cc1nn(C2CC2)c2cc(C3CC3)ccc2c1=O)Nc1ccc2nccn2n1 [F-55]
18.5 | 0.53 | CCn1nc(CC(=O)Nc2ccc3nncn3n2)c(=O)c2ccc(C(F)(F)F)cc21 [F-56]
> 20 | 0.37 | O=C(Cc1nn(C2CC2)c2cc(C3CC3)ccc2c1=O)Nc1ccc2nncn2c1 [F-59]
> 20 | 0.27 | O=C(Cc1nn(C2CC2)c2cc(C(F)(F)F)ccc2c1=O)Nc1ccc2nncn2c1 [F-63]
8.36 | 0.24 | CCn1nc(CC(=O)Nc2ccc3nccn3n2)c(=O)c2ccc(C(C)(F)F)cc21 [F-65]
17.4 | 0.166 | CCn1nc(CC(=O)Nc2ccc3nncn3c2)c(=O)c2ccc(C(C)C)cc21 [F-69]
6.23 | 0.096 | CC(F)(F)c1ccc2c(=O)c(CC(=O)Nc3ccc4nncn4n3)nn(C3CC3)c2c1 [F-72]
> 20 | 0.06 | CCn1nc(CC(=O)Nc2ccc3nncn3n2)c(=O)c2ccc(Br)cc21 [F-73]
16.6 |  | CC(C)n1nc(CC(=O)Nc2ccncn2)c(=O)c2ccc(C3CC3)cc21 [F-79, 2-(7-cyclopropyl-1-isopropyl-4-oxo-1,4-dihydrocinnolin-3-yl)-N-(pyrimidin-4-yl)acetamide]
> 20 | 1.21 | CC(C)n1nc(CC(=O)N[C@H]2C[C@@](C)(O)C2)c(=O)c2ccc(C3CC3)cc21 [F-80]
7.11 | 0.166 | CC(C)n1nc(CC(=O)Nc2ccc3nncn3c2)c(=O)c2ccc(C3CC3)cc21 [F-81]
> 20 | 0.18 | CCn1nc(CC(=O)Nc2ccc3nncn3c2)c(=O)c2ccc(C3CC3)cc21 [F-82]
> 20 | 1.15 | CCn1nc(CC(=O)N[C@H]2C[C@@](C)(O)C2)c(=O)c2ccc(C3CC3)cc21 [F-83]
> 20 | > 20 | CC(C)n1nc(CC(=O)Nc2ccc(C(F)(F)F)nn2)c(=O)c2ccc(C(F)(F)F)cc21 [F-84, 2-(1-isopropyl-4-oxo-7-(trifluoromethyl)-1,4-dihydrocinnolin-3-yl)-N-(6-(trifluoromethyl)pyridazine-3-yl)acetamide]
> 20 | 13.4 | CC(C)n1nc(CC(=O)Nc2ccc(C(F)F)nn2)c(=O)c2ccc(C(F)(F)F)cc21 [F-87]
> 20 | > 20 | CC(C)n1nc(CC(=O)Nc2nc3ccc(Cl)cc3n2C)c(=O)c2ccc(C(F)(F)F)cc21 [F-89]
> 20 | > 20 | CC(C)n1nc(CC(=O)Nc2nc3cc(Br)ccc3n2C)c(=O)c2ccc(C(F)(F)F)cc21 [F-90]
> 20 | 6.03 | CC(C)n1nc(CC(=O)Nc2nc3cc(Cl)ccc3o2)c(=O)c2ccc(C(F)(F)F)cc21 [F-102]
> 20 | 2.4 | CCS(=O)(=O)c1ccc2oc(NC(=O)Cc3nn(C(C)C)c4cc(C(F)(F)F)ccc4c3=O)nc2c1 [F-105]
> 20 | 0.99 | O=C(Cc1nn(C2CC2)c2cc(C3CC3)ccc2c1=O)Nc1cn2cnnc2cn1 [F-109]

EC50 [1] [µM] | IC50 [2] [µM] | Structure (SMILES)
> 20 | 0.53 | CC(C)n1nc(CC(=O)Nc2cn3cnnc3cn2)c(=O)c2ccc(C(F)(F)F)cc21 [F-112]
> 20 | 3.8 | CC(C)n1nc(CC(=O)Nc2cn3cc(Br)ncc3n2)c(=O)c2ccc(C(F)(F)F)cc21 [F-116, N-(6-bromoimidazo[1,2-a]pyrazin-2-yl)-2-(1-isopropyl-4-oxo-7-(trifluoromethyl)-1,4-dihydrocinnolin-3-yl)acetamide]
> 20 | 0.835 | CC(C)n1nc(CC(=O)Nc2nc3c(Cl)cccn3n2)c(=O)c2ccc(C(F)(F)F)cc21 [F-117]
> 10 | 1.61 | CC(C)n1nc(CC(=O)Nc2nc3ccc(Br)nn3n2)c(=O)c2ccc(C(F)(F)F)cc21 [F-118]
> 20 | 2.18 | COc1ccc2nc(NC(=O)Cc3nn(C(C)C)c4cc(C(F)(F)F)ccc4c3=O)nn2c1 [F-119]
> 20 | 11.6 | CC(C)n1nc(CC(=O)Nc2nc3nccc(C4CC4)n3n2)c(=O)c2ccc(C(F)(F)F)cc21 [F-120]
> 20 | 6.87 | CC(C)n1nc(CC(=O)Nc2nc3ccc(C(F)(F)F)cn3n2)c(=O)c2ccc(C(F)(F)F)cc21 [F-121]
> 20 | 0.354 | Cc1ccn2nc(NC(=O)Cc3nn(C(C)C)c4cc(C(F)(F)F)ccc4c3=O)nc2c1 [F-122]
> 20 | 1.97 | CC(C)n1nc(CC(=O)Nc2cn3cccnc3n2)c(=O)c2ccc(C(F)(F)F)cc21 [F-123]
> 20 | 0.123 | CC(C)n1nc(CC(=O)Nc2nc3cnccn3n2)c(=O)c2ccc(C(F)(F)F)cc21 [F-124]
> 20 | 2.59 | CC(C)n1nc(CC(=O)Nc2cc3ncccn3n2)c(=O)c2ccc(C(F)(F)F)cc21 [F-125]
> 20 | 5.62 | CC(C)n1nc(CC(=O)Nc2cn3ccncc3n2)c(=O)c2ccc(C(F)(F)F)cc21 [F-126]
> 20 | 4.35 | CC(C)n1nc(CC(=O)Nc2nc3cccnc3o2)c(=O)c2ccc(C(F)(F)F)cc21 [F-127]
> 20 | 0.66 | Cc1ccn2nc(NC(=O)Cc3nn(C(C)C)c4cc(C(F)(F)F)ccc4c3=O)nc2n1 [F-128]
> 20 | 3.23 | CC(C)n1nc(CC(=O)Nc2nc3ncc(Br)cn3n2)c(=O)c2ccc(C(F)(F)F)cc21 [F-129]
11.2 | 0.86 | CC(C)n1nc(CC(=O)Nc2cc(F)[nH]c(=O)c2)c(=O)c2ccc(C(F)(F)F)cc21 [F-130, N-(6-fluoro-2-oxo-1,2-dihydropyridin-4-yl)-2-(1-isopropyl-4-oxo-7-(trifluoromethyl)-1,4-dihydrocinnolin-3-yl)acetamide]
> 20 | 0.656 | CC(C)n1nc(CC(=O)Nc2ccc3nc(C(F)(F)F)cn3c2)c(=O)c2ccc(C(F)(F)F)cc21 [F-131]
15.6 | 0.16 | CC(C)n1nc(CC(=O)Nc2ccc3nncn3n2)c(=O)c2ccc(C3CC3)cc21 [F-133, N-([1,2,4]triazolo[4,3-b]pyridazine-6-yl)-2-(7-cyclopropyl-1-isopropyl-4-oxo-1,4-dihydrocinnolin-3-yl)acetamide]
